Measurements published in ChEMBL document CHEMBL4627273, “BET proteins: Investigating BRDT as a potential target for male contraception” (Bioorg Med Chem Lett, 2020).
pKd: −log10 of the molar value.

Target: Bromodomain testis-specific protein (Homo sapiens, UniProt Q58F21)
Assay: Binding affinity to human partial length BRDT bromodomain 1 (N21 to E137 residues) expressed in bacterial expression system by BROMOscan assay

In the case of `Cc1sc2c(c1C)C(c1ccc(Cl)cc1)=N[C@@H](CC(=O)NCCCCNC(=O)COc1cccc3c1C(=O)N(C1CCC(=O)NC1=O)C3=O)c1nnc(C)n1-2` (stereo partly specified), the pKd was 7.72 to 8.22.
